Active and inactive are the calls of the source. No cut-off for these calls is given here.
What was measured:
MCF7 [1] = test: Growth promoting activity in human MCF7 cells after 7 days by colorimetric methylene blue assay in presence of Toremifene; format: functional, cell-based
MCF7 [2] = test: Growth promoting activity in human MCF7 cells at >10 nM after 7 days by colorimetric methylene blue assay in presence of Toremifene; format: functional, cell-based

CC1(C)[C@@H]2C[C@]3(O)CC(=O)[C@@](O)(C4=COc5cc(O)ccc5[C@H]41)[C@@H]2[C@H]3O was tested, and the Activity (MCF7 [1]) was “Active” and the Activity (MCF7 [2]) was “Active”.

CC1(C)[C@@H]2C[C@]3(O)CC(=O)[C@@H](C4=COc5cc(O)ccc5[C@H]41)[C@@H]2[C@H]3O was tested, and the Activity (MCF7 [1]) was “Active” and the Activity (MCF7 [2]) was “Active”.
